Results as given in US10766869B2, “Triazoles for the treatment of demyelinating dieases” (Vertex Pharmaceuticals Incorporated, priority 2015, dated 2020).

Tested on: primary rat mixed cortical cells
Experiment: In vitro myelination assay (MBP positive myelin strands, fold myelin pixels above background)
Format: cell-based
Conditions: Rattus norvegicus, read-out: Fold myelin pixels above background relative to baseline of no added compound; for fold induction at 1 µM: 1.0 μM compound; for fold induction at 10 µM: 10.0 μM compound
Procedure, shortened: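 Myelination read as total MBP-immunopositive strand pixels per well, imaged at 10× after fixation on day 14 and expressed relative to untreated wells, at 1.0 and 10.0 μM. Cells: dissociated postnatal day 1 rat cortex, cultured two weeks with compound, re-dosed at days 6 and 10.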

Compound | fold induction at 1 µM | fold induction at 10 µM
CC(=O)N[C@H]1C[C@H](Oc2cc(C)cc(Nc3ncn(-c4cc(F)cc(F)c4)n3)c2)C1 [Compound 813, N-[3-[3-[[1-(3,5-difluorophenyl)-1,2,4-triazol-3-yl]amino]-5-methyl-phenoxy]cyclobutyl]acetamide] | 10 to 100 | 1 to 10
Cc1cc(Nc2ncn(-c3cc(F)cc(F)c3)n2)cc(N2CCC3(CCOC3)CC2)c1 [Compound 814, 1-(3,5-difluorophenyl)-N-[3-methyl-5-(2-oxa-8-azaspiro[4.5]decan-8-yl)phenyl]-1,2,4-triazol-3-amine] | 10 to 100 | 1 to 10
Cc1cc(Nc2ncn(-c3cc(F)cc(F)c3)n2)nc(N2CCCC(CO)C2)c1 (centres unmarked) [Compound 815, [1-[6-[[1-(3,5-difluorophenyl)-1,2,4-triazol-3-yl]amino]-4-methyl-2-pyridyl]-3-piperidyl]methanol] | 1 to 10 | 10 to 100
COCCNC1CN(c2cc(C)cc(Nc3ncn(-c4cc(F)cc(F)c4)n3)c2)C1 [Compound 816, 1-(3,5-difluorophenyl)-N-[3-[3-(2-methoxyethylamino)azetidin-1-yl]-5-methyl-phenyl]-1,2,4-triazol-3-amine] | 1 to 10 | 1 to 10
CCN(CC)C(=O)C1CN(c2cc(C)cc(Nc3ncn(-c4cc(F)cc(F)c4)n3)c2)C1 [Compound 817, 1-[3-[[1-(3,5-difluorophenyl)-1,2,4-triazol-3-yl]amino]-5-methyl-phenyl]-N,N-diethyl-azetidine-3-carboxamide] | 10 to 100 | 10 to 100
Cc1cc(Nc2ncn(-c3cnccn3)n2)cc(N2CCCN(C3COC3)CC2)c1 [Compound 818, N-[3-methyl-5-[4-(oxetan-3-yl)-1,4-diazepan-1-yl]phenyl]-1-pyrazin-2-yl-1,2,4-triazol-3-amine] | 10 to 100 | 100 to 1000
Fc1cc(-n2cnc(Nc3cc(Cl)cc(N4CC(N5CCOCC5)C4)c3)n2)ccn1 [Compound 819, N-[3-chloro-5-(3-morpholinoazetidin-1-yl)phenyl]-1-(2-fluoro-4-pyridyl)-1,2,4-triazol-3-amine] | 10 to 100 | 1 to 10
Cc1cc(Nc2ncn(-c3cc(F)cc(F)c3)n2)c(C)c(N2CC(N3CCOCC3)C2)c1 [Compound 820, 1-(3,5-difluorophenyl)-N-[2,5-dimethyl-3-(3-morpholinoazetidin-1-yl)phenyl]-1,2,4-triazol-3-amine] | 1 to 10 | 10 to 100
Cc1cc(Nc2ncn(-c3cc(F)cc(F)c3)n2)nc(N2CC(C#N)C2)c1 [Compound 821, 1-[6-[[1-(3,5-difluorophenyl)-1,2,4-triazol-3-yl]amino]-4-methyl-2-pyridyl]azetidine-3-carbonitrile] | ≤ 1 | 10 to 100
Cc1cc(Nc2ncn(-c3cc(F)cc(F)c3)n2)cc(N2C[C@@H]3C[C@H]2CO3)c1 [Compound 822, 1-(3,5-difluorophenyl)-N-[3-methyl-5-[(1S,4S)-2-oxa-5-azabicyclo[2.2.1]heptan-5-yl]phenyl]-1,2,4-triazol-3-amine] | 10 to 100 | ≤ 1
CC1(N2CCN(c3cc(C(F)F)cc(Nc4ncn(-c5cccc(F)c5)n4)n3)CC2)COC1 [Compound 823, 4-(difluoromethyl)-N-[1-(3-fluorophenyl)-1,2,4-triazol-3-yl]-6-[4-(3-methyloxetan-3-yl)piperazin-1-yl]pyridin-2-amine] | 10 to 100 | 10 to 100
COCCN(C)C(=O)C1CN(c2cc(C)cc(Nc3ncn(-c4cc(F)cc(F)c4)n3)c2)C1 [Compound 824, 1-[3-[[1-(3,5-difluorophenyl)-1,2,4-triazol-3-yl]amino]-5-methyl-phenyl]-N-(2-methoxyethyl)-N-methyl-azetidine-3-carboxamide] | 10 to 100 | 1 to 10
Cc1cc(Nc2ncn(-c3cnccn3)n2)cc(N2CC(N3CCCOCC3)C2)c1 [Compound 825, N-[3-methyl-5-[3-(1,4-oxazepan-4-yl)azetidin-1-yl]phenyl]-1-pyrazin-2-yl-1,2,4-triazol-3-amine] | 10 to 100 | 10 to 100
Fc1cccc(-n2cnc(Nc3cc(Cl)cc(N4CC(N5CCOCC5)C4)c3)n2)c1 [Compound 827, N-[3-chloro-5-(3-morpholinoazetidin-1-yl)phenyl]-1-(3-fluorophenyl)-1,2,4-triazol-3-amine] | 10 to 100 | 1 to 10
Cc1cc(Nc2ccn(C)n2)cc(Nc2ncn(-c3ccccc3)n2)c1 [Compound 828, 5-methyl-N3-(1-methylpyrazol-3-yl)-N1-(1-phenyl-1,2,4-triazol-3-yl)benzene-1,3-diamine] | 1 to 10 | ≤ 1
CCc1cc(Nc2ncn(-c3ccc(F)c(C)c3)n2)cc(N2CCN(C3COC3)CC2)c1 [Compound 829, N-[3-ethyl-5-[4-(oxetan-3-yl)piperazin-1-yl]phenyl]-1-(4-fluoro-3-methyl-phenyl)-1,2,4-triazol-3-amine] | 1 to 10 | ≤ 1

Compound | fold induction at 1 µM | fold induction at 10 µM
CC(C)Oc1cc(Nc2ncn(-c3cc(F)cc(F)c3)n2)cc(N2CC(N3CCOCC3)C2)c1 [Compound 830, 1-(3,5-difluorophenyl)-N-[3-isopropoxy-5-(3-morpholinoazetidin-1-yl)phenyl]-1,2,4-triazol-3-amine] | 100 to 1000 | 10 to 100
Cc1cc(Nc2ncn(-c3cc(F)cc(F)c3)n2)cc(N2CCN3CC(F)(F)C[C@H]3C2)c1 [Compound 831, N-[3-[(8aS)-7,7-difluoro-13,4,6,8,8a-hexahydropyrrolo[1,2-a]pyrazin-2-yl]-5-methyl-phenyl]-1-(3,5-difluorophenyl)-1,2,4-triazol-3-amine] | 10 to 100 | 10 to 100
Cc1cc(Nc2ncn(-c3cc(F)cc(F)c3)n2)cc(OCCn2cccn2)c1 [Compound 832, 1-(3,5-difluorophenyl)-N-[3-methyl-5-(2-pyrazol-1-ylethoxy)phenyl]-1,2,4-triazol-3-amine] | 10 to 100 | 10 to 100
Cc1cc(Nc2ncn(-c3cccc(C(F)F)c3)n2)cc(N2CCN(C3COC3)CC2)c1 [Compound 833, 1-[3-(difluoromethyl)phenyl]-N-[3-methyl-5-[4-(oxetan-3-yl)piperazin-1-yl]phenyl]-1,2,4-triazol-3-amine] | 1 to 10 | ≤ 1
Cc1cc(CN2CCN(C3COC3)CC2)c(F)c(Nc2ncn(-c3ccc(F)c(F)c3)n2)c1 [Compound 834, 1-(3,4-difluorophenyl)-N-[2-fluoro-5-methyl-3-[[4-(oxetan-3-yl)piperazin-1-yl]methyl]phenyl]-1,2,4-triazol-3-amine] | 1 to 10 | 1 to 10
N#Cc1cc(Nc2ncn(-c3cc(F)cc(F)c3)n2)cc(N2CCOCC2)c1 [Compound 835, 3-[[1-(3,5-difluorophenyl)-1,2,4-triazol-3-yl]amino]-5-morpholino-benzonitrile] | 1 to 10 | 10 to 100
Cc1cc(Nc2ncn(-c3ccc(C)c(F)c3)n2)cc(N2CCN(C3COC3)CC2)c1 [Compound 836, 1-(3-fluoro-4-methyl-phenyl)-N-[3-methyl-5-[4-(oxetan-3-yl)piperazin-1-yl]phenyl]-1,2,4-triazol-3-amine] | 1 to 10 | 1 to 10
Cc1cc(Nc2ncn(-c3cccc(C(F)(F)F)c3)n2)nc(N2CCOCC2)c1 [Compound 837, 4-methyl-6-morpholino-N-[1-[3-(trifluoromethyl)phenyl]-1,2,4-triazol-3-yl]pyridin-2-amine] | 1 to 10 | 10 to 100
Cc1cc(Nc2ncn(-c3ccccc3)n2)cc(Nc2ncco2)c1 [Compound 838, 5-methyl-N1-oxazol-2-yl-N3-(1-phenyl-1,2,4-triazol-3-yl)benzene-1,3-diamine] | ≤ 1 | ≤ 1
COCC1CCN(c2cc(C(F)(F)F)cc(Nc3ncn(-c4cc(F)cc(F)c4)n3)n2)CC1 [Compound 839, N-[1-(3,5-difluorophenyl)-1,2,4-triazol-3-yl]-6-[4-(methoxymethyl)-1-piperidyl]-4-(trifluoromethyl)pyridin-2-amine] | 1 to 10 | ≤ 1
Cc1cc(CN2CCN(C3COC3)CC2)cc(Nc2ncn(-c3ccc(F)c(F)c3)n2)c1 [Compound 840, 1-(3,4-difluorophenyl)-N-[3-methyl-5-[[4-(oxetan-3-yl)piperazin-1-yl]methyl]phenyl]-1,2,4-triazol-3-amine] | 10 to 100 | 10 to 100
COc1ccc(-n2cnc(Nc3cc(C)cc(N4CC(N5CCOCC5)C4)c3)n2)cc1 [Compound 841, 1-(4-methoxyphenyl)-N-[3-methyl-5-(3-morpholinoazetidin-1-yl)phenyl]-1,2,4-triazol-3-amine] | 1 to 10 | 10 to 100
N#Cc1cc(Nc2ncn(-c3cccnc3)n2)cc(N2CCN(C3COC3)CC2)c1 [Compound 842, 3-[4-(oxetan-3-yl)piperazin-1-yl]-5-[[1-(3-pyridyl)-1,2,4-triazol-3-yl]amino]benzonitrile] | 1 to 10 | ≤ 1
Cc1cc(Nc2ncn(-c3cc(F)cc(F)c3)n2)nc(N2CC3CCOC3C2)c1 (centres unmarked) [Compound 843, 6-(2,3,3a,4,6,6a-hexahydrofuro[2,3-c]pyrrol-5-yl)-N-[1-(3,5-difluorophenyl)-1,2,4-triazol-3-yl]-4-methyl-pyridin-2-amine] | 1 to 10 | 1 to 10
Cc1cc(Nc2ncn(-c3ccc(F)c(F)c3)n2)cc(OCCN2CCOCC2)c1 [Compound 845, 1-(3,4-difluorophenyl)-N-[3-methyl-5-(2-morpholinoethoxy)phenyl]-1,2,4-triazol-3-amine] | 10 to 100 | 1 to 10
